Assay results taken from patent publication US20240207288A1, “METHODS OF TREATING ESOPHAGEAL STRICTURES” (Ellodi Pharmaceuticals, L.P., priority 2021, published 2024).
Read-outs that look alike come from different tables or passages of the source.

Experiments:
[1] = system: subjects with strictures and/or rings and EoE; assay: Clinical trial of FP ODT: histologic response (peak eosinophils/HPF in oesophageal biopsies); assay type: in vivo, human; settings: subgroup with strictures and/or Grade 2 rings at baseline, Week 12
Protocol: A clinical trial was performed to evaluate the effect of an orally disintegrating tablet (“ODT”) comprising fluticasone propionate (FP). A randomised, double-blind, placebo-controlled, multicentre, dose-ranging, and maintenance study of FP in subjects (>18 and <75 years of age) with strictures and/or rings and EoE. The trial examined four doses of FP to define the exposure-response of FP and the minimum effective dose to minimize significant hypothalamic-pituitary-adrenal (HPA) axis effects. The study (as shown in FIG. 1) was designed as follows. • (a) Screening: Patients with a confirmed diagnosis or presumptive diagnosis of EoE (including identifying strictures and/or rings) were selected for the study. An EoE diagnosis was confirmed by symptoms, histology, and historical documentation of failed treatment on >8 weeks of high-dose proton pump inhibitor (PPI). A high-dose PPI was defined as administration of a total dose of 20 to 40 mg of a marketed PPI once or twice daily.
(§1) Subjects that participated in Part 1 studies were randomized and administered a treatment selected from: • (a) 1.5 mg HS: Placebo 30 minutes after breakfast and 1.5 mg HS (at bedtime); • (b) 1.5 mg BID: 1.5 mg 30 minutes after breakfast and at bedtime; total daily dose of 3 mg; • (c) 3 mg HS: Placebo 30 minutes after breakfast and 3 mg at bedtime; and • (d) 3 mg BID: 3.0 mg 30 minutes after breakfast and at bedtime; total daily dose of 6 mg.
During Part 1 (Induction, Day 1 to Week 14), subjects received their randomized treatment for 14 weeks. At Week 12, the subjects underwent a response assessment, including an oesophagogastroduodenoscopy (EGD) to assess endoscopic and histologic status. Histologic responders and non-responders (at Week 12) entered Part 2.
The primary endpoint was the histologic responder rate at Week 12 of Part 1, […] 5 to 6 biopsies from the proximal and distal oesophagus (approximately 3 each) where the HPF area was […] (40 magnification lens with a 22 mm ocular).

[2] = system: subjects with EoE (safety analysis set); assay: Clinical trial of FP ODT: treatment-emergent adverse events; assay type: in vivo, human
Protocol: as §1
Patient Population: 105 subjects received at least 1 dose of study drug in Part 1 of the study safety analysis set (SAF population), and 92 subjects ([…]) of those subjects completed Week 14. […] Subjects were classified according to their randomized treatment.
Safety endpoints were measured such as Frequency of treatment-emergent adverse event (TEAEs); TEAEs leading to discontinuation; Treatment-emergent serious adverse events (SAEs); Percentage of subjects with serum cortisol level ≤5 μg/dL (≤138 nmol/L) or abnormal adrenocorticotropic hormone (ACTH) stimulation test (serum cortisol <16 μg/dL [≤440 nmol/L] at 60 minutes); The number of subjects discontinuing for HPA axis suppression will be recorded; and frequency of oral and esophageal candidiasis.

[3] = cited from earlier work

With “S-(fluoromethyl)-6α,9-difluoro-11β, 17-dihydroxy-16α-methyl-3-oxoandrosta-1, 4-diene-17β-carbothioate, 17-propanoate [FP]” the “Histology Responder Rate, %” value ([1]; FP 1.5 mg BID (n = 12)) was 100%, the “Histology Responder Rate, %” value ([1]; FP 1.5 mg HS (n = 13)) was 54% and the “Histology Responder Rate, %” value ([1]; FP 3 mg BID (n = 7)) was 86%. The “Histology Responder Rate, %” value ([1]; FP 3 mg HS (n = 11)) was 82%, the “Histology Responder Rate, %” value ([1]; all FP dosing groups, TOTAL (n = 43)) was 79% and the “At least 1 TEAE, (%)” value ([2]; FP 1.5 mg BID (n = 23)) was “(74) %”. The “Maximum severity of TEAE: Mild, (%)” value ([2]; FP 1.5 mg BID (n = 23)) was “(61) %”, the “Maximum severity of TEAE: Moderate, (%)” value ([2]; FP 1.5 mg BID (n = 23)) was “(13) %” and the “TEAE leading to study discontinuation, (%)” value (from here on “TEAE leading … (%)”) ([2]; FP 1.5 mg BID (n = 23)) was “(9) %”. The “TEAE of special interest, (%)” value ([2]; FP 1.5 mg BID (n = 23)) was “(13) %”, the “TEAE related to study drug, (%)” value ([2]; FP 1.5 mg BID (n = 23)) was “(22) %” and the “At least 1 TEAE, (%)” value ([2]; FP 1.5 mg HS (n = 21)) was “(62) %”. For the same substance, the “Maximum severity of TEAE: Mild, (%)” value ([2]; FP 1.5 mg HS (n = 21)) was “(52) %”, the “Maximum severity of TEAE: Moderate, (%)” value ([2]; FP 1.5 mg HS (n = 21)) was “(5) %” and the “Maximum severity of TEAE: Severe, (%)” value ([2]; FP 1.5 mg HS (n = 21)) was “(5) %”. For the same substance, the “TEAE related to study drug, (%)” value ([2]; FP 1.5 mg HS (n = 21)) was “(10) %”, the “At least 1 TEAE, (%)” value ([2]; FP 3 mg BID (n = 20)) was “(85) %” and the “Maximum severity of TEAE: Mild, (%)” value ([2]; FP 3 mg BID (n = 20)) was “(60) %”. The “Maximum severity of TEAE: Moderate, (%)” value ([2]; FP 3 mg BID (n = 20)) was “(25) %”, the “TEAE leading … (%)” value ([2]; FP 3 mg BID (n = 20)) was “(5) %” and the “TEAE of special interest, (%)” value ([2]; FP 3 mg BID (n = 20)) was “(35) %”. The “TEAE related to study drug, (%)” value ([2]; FP 3 mg BID (n = 20)) was “(50) %”, the “At least 1 TEAE, (%)” value ([2]; FP 3 mg HS (n = 21)) was “(76) %” and the “Maximum severity of TEAE: Mild, (%)” value ([2]; FP 3 mg HS (n = 21)) was “(29) %”. For the same substance, the “Maximum severity of TEAE: Moderate, (%)” value ([2]; FP 3 mg HS (n = 21)) was “(43) %”, the “Maximum severity of TEAE: Severe, (%)” value ([2]; FP 3 mg HS (n = 21)) was “(5) %” and the “Serious TEAE, (%)” value ([2]; FP 3 mg HS (n = 21)) was “(5) %”. The “TEAE of special interest, (%)” value ([2]; FP 3 mg HS (n = 21)) was “(5) %”, the “TEAE related to study drug, (%)” value ([2]; FP 3 mg HS (n = 21)) was “(29) %” and the “At least 1 TEAE, (%)” value ([2]; Total FP (n = 85)) was 74%. For the same substance, the “Maximum severity of TEAE: Mild, (%)” value ([2]; Total FP (n = 85)) was 51%, the “Maximum severity of TEAE: Moderate, (%)” value ([2]; Total FP (n = 85)) was 21% and the “Maximum severity of TEAE: Severe, (%)” value ([2]; Total FP (n = 85)) was 2 (2) %. The “Serious TEAE, (%)” value ([2]; Total FP (n = 85)) was 1 (1) %, the “TEAE leading … (%)” value ([2]; Total FP (n = 85)) was 4% and the “TEAE of special interest, (%)” value ([2]; Total FP (n = 85)) was 13%. The “TEAE related to study drug, (%)” value ([2]; Total FP (n = 85)) was 25%, the Solubility ([3]; acetone, dichloromethane, ethyl acetate and chloroform) was “sparingly soluble” and the Solubility ([3]; dimethyl sulfoxide and dimethylformamide) was “freely soluble”. The Solubility ([3]; methanol and 95% ethanol) was “slightly soluble” and the Solubility ([3]; water) was “practically insoluble”.
